Measurements published in patent US12370192B2, “Azole-fused pyridazin-3(2H)-one derivatives” (TAKEDA PHARMACEUTICAL COMPANY LIMITED, priority 2019, dated 2025).

Columns and labels:
human GPR139 receptor [1] = target: T1, human GPR139 receptor (Homo sapiens, UniProt Q6DWJ6); test: GPR139 Competition Binding (membrane-based, tritium-labeled ligand); settings: T-REx-CHO membranes with human GPR139; 6.5 nM tritium-labeled ligand; 11-point curve, 30 μM maximum concentration; read-out: GPR139 Binding Affinity (pKi) (converted)
T1 construct: expressed in transfected cells; host or cells: T-REx-CHO (Thermo Fisher Scientific), doxycycline-induced
T1 sequence (Q6DWJ6 1-353): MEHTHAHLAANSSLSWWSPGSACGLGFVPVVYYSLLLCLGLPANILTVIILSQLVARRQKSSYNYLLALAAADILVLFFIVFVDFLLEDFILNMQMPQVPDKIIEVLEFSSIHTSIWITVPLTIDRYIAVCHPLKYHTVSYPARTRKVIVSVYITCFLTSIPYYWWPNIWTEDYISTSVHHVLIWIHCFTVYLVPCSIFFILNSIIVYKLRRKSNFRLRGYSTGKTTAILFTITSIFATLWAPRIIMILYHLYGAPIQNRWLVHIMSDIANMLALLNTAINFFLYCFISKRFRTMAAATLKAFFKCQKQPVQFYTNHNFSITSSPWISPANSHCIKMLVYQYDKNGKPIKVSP
Outline: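 Membranes came from doxycycline-induced T-REx-CHO cells expressing human GPR139. They were incubated 20 min at room temperature with 6.5 nM tritiated ligand and compound (11 points, top 30 μM) in HEPES pH 7.3 buffer with MgCl2/CaCl2. Filter-bound counts gave Ki by four-parameter fit, reported as pKi.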

human GPR139 receptor [2] = target: T1, human GPR139 receptor; test: Measurement of GPR139 Activation Via Calcium Signaling (FLIPR, T-REx-CHO cells); format: cell-based; settings: T-REx-CHO cells stably expressing human GPR139, 11-point dose response, 10 μM maximum concentration, read-out: GPR139 Potency (pEC50) (converted)
Outline: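 Calcium flux read by FLIPR for 1 min after adding compounds (11 concentrations, maximum 10 μM) to doxycycline-induced (2 μg/mL, 17 h) T-REx-CHO cells expressing human GPR139. Cells dye-loaded 40 min at 37 °C in HBSS, 1 mM HEPES pH 7.4 with probenecid; activation reported as pEC50 from four-parameter logistic fit.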

SMILES | Ki (human GPR139 receptor [1]) | EC50 (human GPR139 receptor [2])
Cc1nn(CC(=O)N[C@@H](C)c2ccc(C(F)(F)F)cc2)c(=O)c2cnn(C(C)C)c12 [Example 75, (S)-2-(1-isopropyl-7-methyl-4-oxo-1,4-dihydro-5H-pyrazolo[3,4-d]pyridazin-5-yl)-N-(1-(4-(trifluoromethyl)phenyl)ethyl)acetamide] | 2340 nM | 617 nM
Cc1ccc([C@H](C)NC(=O)Cn2nc(C)c3c(cnn3C3CC3)c2=O)cc1 [Example 80, (S)-2-(1-cyclopropyl-7-methyl-4-oxo-1,4-dihydro-5H-pyrazolo[3,4-d]pyridazin-5-yl)-N-(1-(p-tolyl)ethyl)acetamide] | 1660 nM | 251 nM
Cc1ccc([C@H](C)NC(=O)Cn2nc(C)c3c(cnn3C3CC3)c2=O)c(F)c1 [Example 81, (S)-2-(1-cyclopropyl-7-methyl-4-oxo-1,4-dihydro-5H-pyrazolo[3,4-d]pyridazin-5-yl)-N-(1-(2-fluoro-4-methylphenyl)ethyl)acetamide] | 331 nM | 145 nM
Cc1ccc([C@H](C)NC(=O)Cn2nc(C)c3c(cnn3C)c2=O)c(F)c1 [Example 82] | 550 nM | 41.7 nM
Cc1nn(C2CC2)c2c(=O)n(CC(=O)N3CCCC3c3ccc(Cl)cc3)ncc12 (stereo not drawn) [Example 85, 6-(2-(2-(4-chlorophenyl)pyrrolidin-1-yl)-2-oxoethyl)-1-cyclopropyl-3-methyl-1,6-dihydro-7H-pyrazolo[3,4-d]pyridazin-7-one] | 55 nM | 741 nM
Cc1ccc([C@H](C)NC(=O)Cn2ncc3c(cnn3C(C)C)c2=O)c(F)c1 [Example 88, (S)—N-(1-(2-fluoro-4-methylphenyl)ethyl)-2-(1-isopropyl-4-oxo-1,4-dihydro-5H-pyrazolo[3,4-d]pyridazin-5-yl)acetamide] | 676 nM | 77.6 nM
Cc1ccc([C@H](C)NC(=O)Cn2ncc3c(cnn3C(C)C)c2=O)cc1 [Example 89, (S)-2-(1-isopropyl-4-oxo-1,4-dihydro-5H-pyrazolo[3,4-d]pyridazin-5-yl)-N-(1-(p-tolyl)ethyl)acetamide] | 2190 nM | 44.7 nM
Cc1ccc([C@H](C)NC(=O)Cn2ncc3c(c(C)nn3C(C)C)c2=O)c(F)c1 [Example 92, (S)—N-(1-(2-fluoro-4-methylphenyl)ethyl)-2-(1-isopropyl-3-methyl-4-oxo-1,4-dihydro-5H-pyrazolo[3,4-d]pyridazin-5-yl)acetamide] | 100 nM | 57.5 nM
Cc1nn(C(C)C)c2cnn(CC(=O)N[C@@H](C)c3ccc(OC(F)(F)F)cc3)c(=O)c12 [Example 93, (S)-2-(1-isopropyl-3-methyl-4-oxo-1,4-dihydro-5H-pyrazolo[3,4-d]pyridazin-5-yl)-N-(1-(4-(trifluoromethoxy)phenyl)ethyl)acetamide] | 389 nM | 234 nM
Cc1nn(C(C)C)c2cnn(CC(=O)N[C@@H](C)c3ccc(C(F)(F)F)cc3)c(=O)c12 [Example 94, (S)-2-(1-isopropyl-3-methyl-4-oxo-1,4-dihydro-5H-pyrazolo[3,4-d]pyridazin-5-yl)-N-(1-(4-(trifluoromethyl)phenyl)ethyl)acetamide] | 309 nM | 107 nM
Cc1ccc([C@H](C)NC(=O)Cn2ncc3c(c(C)nn3C)c2=O)c(F)c1 [Example 99] | 95.5 nM | 123 nM
Cc1nn(CC(=O)N[C@@H](C)c2ccc(C(F)(F)F)cn2)c(=O)c2c1c(C)nn2C1CC1 [Example 101, (S)-2-(1-cyclopropyl-3,4-dimethyl-7-oxo-1,7-dihydro-6H-pyrazolo[3,4-d]pyridazin-6-yl)-N-(1-(5-(trifluoromethyl)pyridin-2-yl)ethyl)acetamide] | 282 nM | 398 nM
Cc1nn(CC(=O)N[C@@H](C)c2ccc(C(F)(F)F)cn2)c(=O)c2c1c(C)nn2C [Example 102, (S)—N-(1-(5-(trifluoromethyl)pyridin-2-yl)ethyl)-2-(1,3,4-trimethyl-7-oxo-1,7-dihydro-6H-pyrazolo[3,4-d]pyridazin-6-yl)acetamide] | 15100 nM | 209 nM
Cc1nn(C(C)C)c2c(=O)n(CC(=O)N[C@@H](C)c3ccc(C(F)(F)F)cn3)ncc12 [Example 103, (S)-2-(1-isopropyl-3-methyl-7-oxo-1,7-dihydro-6H-pyrazolo[3,4-d]pyridazin-6-yl)-N-(1-(5-(trifluoromethyl)pyridin-2-yl)ethyl)acetamide] | 10000 nM | 219 nM
Cc1nn(C2CC2)c2cnn(CC(=O)NC(C)c3ccc4c(c3)CCCO4)c(=O)c12 (stereo not drawn) [Example 104, N-(1-(chroman-6-yl)ethyl)-2-(1-cyclopropyl-3-methyl-4-oxo-1,4-dihydro-5H-pyrazolo[3,4-d]pyridazin-5-yl)acetamide] | 794 nM | 61.7 nM

Continued, values first:

Ki (human GPR139 receptor [1]) | EC50 (human GPR139 receptor [2]) | SMILES
97.7 nM | 107 nM | Cc1nn(CC(=O)NC(C)c2ccc3c(c2)OCCO3)c(=O)c2c1c(C)nn2C1CC1 (stereo not drawn) [Example 105, 2-(1-cyclopropyl-3,4-dimethyl-7-oxo-1,7-dihydro-6H-pyrazolo[3,4-d]pyridazin-6-yl)-N-(1-(2,3-dihydrobenzo[b][1,4]dioxin-6-yl)ethyl)acetamide]
2000 nM | 57.5 nM | Cc1nn(C2CC2)c2cnn(CC(=O)NC(C)c3ccc4c(c3)OCCO4)c(=O)c12 (stereo not drawn) [Example 106, 2-(1-cyclopropyl-3-methyl-4-oxo-1,4-dihydro-5H-pyrazolo[3,4-d]pyridazin-5-yl)-N-(1-(2,3-dihydrobenzo[b][1,4]dioxin-6-yl)ethyl)acetamide]
245 nM | 42.7 nM | Cc1nn(C2CC2)c2cnn(CC(=O)N[C@@H](C)c3ccc(C(F)(F)F)cc3)c(=O)c12 [Example 107, (S)-2-(1-cyclopropyl-3-methyl-4-oxo-1,4-dihydro-5H-pyrazolo[3,4-d]pyridazin-5-yl)-N-(1-(4-(trifluoromethyl)phenyl)ethyl)acetamide]
75.9 nM | 34.7 nM | Cc1ccc([C@H](C)NC(=O)Cn2ncc3c(c(C)nn3C3CC3)c2=O)c(F)c1 [Example 108, (S)-2-(1-cyclopropyl-3-methyl-4-oxo-1,4-dihydro-5H-pyrazolo[3,4-d]pyridazin-5-yl)-N-(1-(2-fluoro-4-methylphenyl)ethyl)acetamide]
1660 nM | 69.2 nM | COc1ccc([C@H](C)NC(=O)Cn2ncc3c(c(C)nn3C3CC3)c2=O)cc1 [Example 110, (S)-2-(1-cyclopropyl-3-methyl-4-oxo-1,4-dihydro-5H-pyrazolo[3,4-d]pyridazin-5-yl)-N-(1-(4-methoxyphenyl)ethyl)acetamide]
42.7 nM | 148 nM | Cc1ccc([C@H](C)NC(=O)Cn2nc(C)c3c(c(C)nn3C)c2=O)c(F)c1 [Example 111, (S)—N-(1-(2-fluoro-4-methylphenyl)ethyl)-2-(1,3,7-trimethyl-4-oxo-1,4-dihydro-5H-pyrazolo[3,4-d]pyridazin-5-yl)acetamide]
263 nM | 617 nM | Cc1nn(C)c2c(C)nn(CC(=O)N[C@@H](C)c3ccc(OC(F)(F)F)cc3)c(=O)c12 [Example 112, (S)—N-(1-(4-(trifluoromethoxy)phenyl)ethyl)-2-(1,3,7-trimethyl-4-oxo-1,4-dihydro-5H-pyrazolo[3,4-d]pyridazin-5-yl)acetamide]
178 nM | 151 nM | Cc1ccc([C@H](C)NC(=O)Cn2nc(C)c3c(c(C)nn3C)c2=O)cc1 [Example 113, (S)—N-(1-(p-tolyl)ethyl)-2-(1,3,7-trimethyl-4-oxo-1,4-dihydro-5H-pyrazolo[3,4-d]pyridazin-5-yl)acetamide]
204 nM | 132 nM | Cc1nn(C)c2c(C)nn(CC(=O)N[C@@H](C)c3ccc(C(F)(F)F)cc3)c(=O)c12 [Example 114, (S)—N-(1-(4-(trifluoromethyl)phenyl)ethyl)-2-(1,3,7-trimethyl-4-oxo-1,4-dihydro-5H-pyrazolo[3,4-d]pyridazin-5-yl)acetamide]
58.9 nM | 224 nM | C[C@H](NC(=O)Cn1ncc2c(c(C3CC3)nn2C)c1=O)c1ccc(C(F)(F)F)cc1 [Example 115, (S)-2-(3-cyclopropyl-1-methyl-4-oxo-1,4-dihydro-5H-pyrazolo[3,4-d]pyridazin-5-yl)-N-(1-(4-(trifluoromethyl)phenyl)ethyl)acetamide]
339 nM | 74.1 nM | COc1ccc([C@H](C)NC(=O)Cn2ncc3c(c(C4CC4)nn3C)c2=O)cc1 [Example 116, (S)-2-(3-cyclopropyl-1-methyl-4-oxo-1,4-dihydro-5H-pyrazolo[3,4-d]pyridazin-5-yl)-N-(1-(4-methoxyphenyl)ethyl)acetamide]
2.09 nM | 50.1 nM | Cc1ccc([C@H](C)NC(=O)Cn2nc(C)c3c(c(C4CC4)nn3C)c2=O)c(F)c1 [Example 117, (S)-2-(3-cyclopropyl-1,7-dimethyl-4-oxo-1,4-dihydro-5H-pyrazolo[3,4-d]pyridazin-5-yl)-N-(1-(2-fluoro-4-methylphenyl)ethyl)acetamide]
